Experimental data: ChEMBL document CHEMBL3861943 (Medchemcomm, 2016)

Tests used:
[1] = Cytotoxicity against human HCT116 cells assessed as decrease in cell proliferation after 72 hrs by MTT reduction assay; assay type: functional, cell-based; settings: HCT-116, 72 h
[2] = Cytotoxicity against human BxPC3 cells assessed as decrease in cell proliferation after 72 hrs by MTT reduction assay; assay type: functional, cell-based; settings: BXPC-3, 72 h
[3] = Cytotoxicity against human WI38 cells assessed as decrease in cell proliferation after 72 hrs by MTT reduction assay; assay type: toxicity, cell-based, WI-38
[4] = biological target: Dihydroorotate dehydrogenase (quinone), mitochondrial (Homo sapiens, UniProt Q02127); assay: Inhibition of recombinant human DHODH by DCIP-based assay; assay type: single protein
Chain of Dihydroorotate dehydrogenase (quinone), mitochondrial (Q02127 whole entry): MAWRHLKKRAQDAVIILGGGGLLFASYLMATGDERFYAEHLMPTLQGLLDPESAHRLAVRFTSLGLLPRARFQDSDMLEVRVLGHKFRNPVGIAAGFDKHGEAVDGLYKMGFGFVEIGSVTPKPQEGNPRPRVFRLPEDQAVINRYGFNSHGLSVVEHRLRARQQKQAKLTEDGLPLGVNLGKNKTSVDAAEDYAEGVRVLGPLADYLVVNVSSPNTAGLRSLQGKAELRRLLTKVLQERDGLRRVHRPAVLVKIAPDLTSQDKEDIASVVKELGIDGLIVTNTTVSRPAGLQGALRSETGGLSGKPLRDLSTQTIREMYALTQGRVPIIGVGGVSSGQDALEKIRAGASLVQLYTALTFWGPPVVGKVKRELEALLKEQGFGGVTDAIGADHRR

BXPC-3 [5] = assay: Induction of apoptosis in human BxPC3 cells assessed as viable cells at 0.2 uM after 48 hrs by annexin V-FITC/propidium iodide staining-based flow cytometric method (reference value: 91.8%); assay type: functional; settings: BXPC-3, 48 h, read-out: Activity
HCT-116 [6] = assay: Induction of apoptosis in human HCT116 cells assessed as late apoptotic cells at 0.2 uM after 48 hrs by annexin V-FITC/propidium iodide staining-based flow cytometric method (reference value: 3.84%); assay type: functional
HCT-116 [7] = assay: Induction of apoptosis in human HCT116 cells assessed as viable cells at 0.2 uM after 48 hrs by annexin V-FITC/propidium iodide staining-based flow cytometric method (reference value: 91.8%); assay type: functional; settings: HCT-116, 48 h, read-out: Activity
HCT-116 [8] = assay: Induction of apoptosis in human HCT116 cells assessed as necrotic cells at 0.2 uM after 36 hrs by annexin V-FITC/propidium iodide staining-based flow cytometric method (reference value: 2.14%); assay type: functional
BXPC-3 [9] = assay: Induction of apoptosis in human BxPC3 cells assessed as viable cells at 0.2 uM after 24 hrs by annexin V-FITC/propidium iodide staining-based flow cytometric method (reference value: 91.8%); assay type: functional; settings: BXPC-3, 24 h, read-out: Activity
BXPC-3 [10] = assay: Induction of apoptosis in human BxPC3 cells assessed as necrotic cells at 0.2 uM after 48 hrs by annexin V-FITC/propidium iodide staining-based flow cytometric method (reference value: 1.15%); assay type: functional
BXPC-3 [11] = assay: Induction of apoptosis in human BxPC3 cells assessed as necrotic cells at 0.2 uM after 24 hrs by annexin V-FITC/propidium iodide staining-based flow cytometric method (reference value: 1.15%); assay type: functional
HCT-116 [12] = assay: Induction of apoptosis in human HCT116 cells assessed as early apoptotic cells at 0.2 uM after 36 hrs by annexin V-FITC/propidium iodide staining-based flow cytometric method (reference value: 2.25%); assay type: functional
HCT-116 [13] = assay: Induction of apoptosis in human HCT116 cells assessed as early apoptotic cells at 0.2 uM after 24 hrs by annexin V-FITC/propidium iodide staining-based flow cytometric method (reference value: 2.25%); assay type: functional
BXPC-3 [14] = assay: Induction of apoptosis in human BxPC3 cells assessed as early apoptotic cells at 0.2 uM after 48 hrs by annexin V-FITC/propidium iodide staining-based flow cytometric method (reference value: 0.344%); assay type: functional
HCT-116 [15] = assay: Induction of apoptosis in human HCT116 cells assessed as late apoptotic cells at 0.2 uM after 36 hrs by annexin V-FITC/propidium iodide staining-based flow cytometric method (reference value: 3.84%); assay type: functional
BXPC-3 [16] = assay: Induction of apoptosis in human BxPC3 cells assessed as viable cells at 0.2 uM after 36 hrs by annexin V-FITC/propidium iodide staining-based flow cytometric method (reference value: 91.8%); assay type: functional; settings: BXPC-3, 36 h, read-out: Activity
BXPC-3 [17] = assay: Induction of apoptosis in human BxPC3 cells assessed as late apoptotic cells at 0.2 uM after 36 hrs by annexin V-FITC/propidium iodide staining-based flow cytometric method (reference value: 6.73%); assay type: functional
BXPC-3 [18] = assay: Induction of apoptosis in human BxPC3 cells assessed as necrotic cells at 0.2 uM after 36 hrs by annexin V-FITC/propidium iodide staining-based flow cytometric method (reference value: 1.15%); assay type: functional
HCT-116 [19] = assay: Induction of apoptosis in human HCT116 cells assessed as late apoptotic cells at 0.2 uM after 24 hrs by annexin V-FITC/propidium iodide staining-based flow cytometric method (reference value: 3.84%); assay type: functional
HCT-116 [20] = assay: Induction of apoptosis in human HCT116 cells assessed as early apoptotic cells at 0.2 uM after 48 hrs by annexin V-FITC/propidium iodide staining-based flow cytometric method (reference value: 2.25%); assay type: functional
HCT-116 [21] = assay: Induction of apoptosis in human HCT116 cells assessed as viable cells at 0.2 uM after 24 hrs by annexin V-FITC/propidium iodide staining-based flow cytometric method (reference value: 91.8%); assay type: functional; settings: HCT-116, 24 h, read-out: Activity
BXPC-3 [22] = assay: Induction of apoptosis in human BxPC3 cells assessed as early apoptotic cells at 0.2 uM after 36 hrs by annexin V-FITC/propidium iodide staining-based flow cytometric method (reference value: 0.344%); assay type: functional
HCT-116 [23] = assay: Induction of apoptosis in human HCT116 cells assessed as necrotic cells at 0.2 uM after 48 hrs by annexin V-FITC/propidium iodide staining-based flow cytometric method (reference value: 2.14%); assay type: functional
BXPC-3 [24] = assay: Induction of apoptosis in human BxPC3 cells assessed as early apoptotic cells at 0.2 uM after 24 hrs by annexin V-FITC/propidium iodide staining-based flow cytometric method (reference value: 0.344%); assay type: functional
BXPC-3 [25] = assay: Induction of apoptosis in human BxPC3 cells assessed as late apoptotic cells at 0.2 uM after 24 hrs by annexin V-FITC/propidium iodide staining-based flow cytometric method (reference value: 6.73%); assay type: functional
HCT-116 [26] = assay: Induction of apoptosis in human HCT116 cells assessed as viable cells at 0.2 uM after 36 hrs by annexin V-FITC/propidium iodide staining-based flow cytometric method (reference value: 91.8%); assay type: functional; settings: HCT-116, 36 h, read-out: Activity
BXPC-3 [27] = assay: Induction of apoptosis in human BxPC3 cells assessed as late apoptotic cells at 0.2 uM after 48 hrs by annexin V-FITC/propidium iodide staining-based flow cytometric method (reference value: 6.73%); assay type: functional
HCT-116 [28] = assay: Induction of apoptosis in human HCT116 cells assessed as necrotic cells at 0.2 uM after 24 hrs by annexin V-FITC/propidium iodide staining-based flow cytometric method (reference value: 2.14%); assay type: functional

## Cc1sc(N/N=C/c2ccccc2C(=O)O)nc1-c1ccccc1Cl
[1]
  IC50: 375 nM
[2]
  IC50: 2970 nM
[3]
  IC50 at 72 h: 44600 nM

## CCCC(C)N(/N=C/c1ccccc1C(=O)O)c1nc(-c2ccccc2Cl)c(C)s1 (centres undefined)
[1]
  IC50: 181 nM
[2]
  IC50: 801 nM
[3]
  IC50 at 72 h: 10100 nM

## O=C(O)c1ccccc1/C=N/Nc1nc(-c2ccccc2Cl)cs1
[4]
  IC50: 29 nM
[1]
  IC50: 713 nM
[2]
  IC50: 3410 nM
[3]
  IC50 at 72 h: 39100 nM

## O=C(O)c1ccccc1/C=N/N(CCO)c1nc(-c2ccccc2Cl)cs1
[4]
  IC50: 425 nM
[1]
  IC50: 763 nM
[2]
  IC50: 4320 nM
[3]
  IC50 at 72 h: 48700 nM

## CCCN(/N=C/c1ccccc1C(=O)O)c1nc(-c2ccccc2Cl)cs1
[4]
  IC50: 9 nM
[1]
  IC50: 276 nM
[2]
  IC50: 263 nM
[3]
  IC50 at 72 h: 10800 nM

## CCN(/N=C/c1ccccc1C(=O)O)c1nc(-c2ccccc2Cl)cs1
[4]
  IC50: 59 nM
[1]
  IC50: 299 nM
[2]
  IC50: 199 nM
[3]
  IC50 at 72 h: 9980 nM

## CN(/N=C/c1ccccc1C(=O)O)c1nc(-c2cccc(Cl)c2)cs1
[1]
  IC50: 268 nM
[2]
  IC50: 1590 nM
[3]
  IC50 at 72 h: 6570 nM

## CCc1sc(N/N=C/c2ccccc2C(=O)O)nc1-c1ccccc1Cl
[1]
  IC50: 922 nM
[2]
  IC50: 2790 nM
[3]
  IC50 at 72 h: 22400 nM

## Cc1ccc(/C=N/N(C)c2nc(-c3ccccc3Cl)cs2)c(C(=O)O)c1
[4]
  IC50: 8 nM
[1]
  IC50: 54 nM
[2]
  IC50: 203 nM
[3]
  IC50 at 72 h: 17000 nM

## CCCC(C)N(/N=C/c1ccccc1C(=O)O)c1nc(-c2ccccc2Cl)cs1 (centres undefined)
[1]
  IC50: 588 nM
[2]
  IC50: 988 nM
[3]
  IC50 at 72 h: 29100 nM

## CCC(C)N(/N=C/c1ccccc1C(=O)O)c1nc(-c2ccccc2Cl)cs1 (centres undefined)
[4]
  IC50: 24 nM
[1]
  IC50: 244 nM
[2]
  IC50: 536 nM
[3]
  IC50 at 72 h: 8300 nM

## Cc1ccc(/C=N/N(C)c2nc(-c3ccccc3)c(C)s2)c(C(=O)O)c1
[1]
  IC50: 87 nM
[2]
  IC50: 300 nM
[3]
  IC50 at 72 h: 41800 nM

## CC(C)N(/N=C/c1ccccc1C(=O)O)c1nc(-c2ccccc2Cl)cs1
[4]
  IC50: 93 nM
[1]
  IC50: 108 nM
[2]
  IC50: 312 nM
[3]
  IC50 at 72 h: 18800 nM

## CN(/N=C/c1ccccc1C(=O)O)c1nc(-c2cc(Cl)ccc2Cl)cs1
[1]
  IC50: 301 nM
[2]
  IC50: 1610 nM
[3]
  IC50 at 72 h: 61000 nM

## O=C(O)c1ccccc1/C=N/Nc1nc(-c2ccccc2)cs1
[4]
  IC50: 139 nM
[1]
  IC50: 880 nM
[2]
  IC50: 18900 nM
[3]
  IC50 at 72 h: 34200 nM

## CN(/N=C/c1ccc(C(F)(F)F)cc1C(=O)O)c1nc(-c2ccccc2Cl)cs1
[1]
  IC50: 2000 nM
[2]
  IC50: 2980 nM
[3]
  IC50 at 72 h: 60900 nM

## CN(/N=C/c1ccc(F)cc1C(=O)O)c1nc(-c2ccccc2Cl)cs1
BXPC-3 [5]
  viability at 0.2 µM: 4.8%
[4]
  IC50: 2 nM
HCT-116 [6]
  Activity: 25.4%
[1]
  IC50: 23 nM
[2]
  IC50: 88 nM
HCT-116 [7]
  viability at 0.2 µM: 68.3%
HCT-116 [8]
  Activity: 1.46%
[3]
  IC50 at 72 h: 29700 nM
BXPC-3 [9]
  viability at 0.2 µM: 80.4%
BXPC-3 [10]
  Activity: 1.59%
BXPC-3 [11]
  Activity: 3.23%
HCT-116 [12]
  Activity: 4.54%
HCT-116 [13]
  Activity: 3.11%
BXPC-3 [14]
  Activity: 0.392%
HCT-116 [15]
  Activity: 7.5%
BXPC-3 [16]
  viability at 0.2 µM: 39.3%
BXPC-3 [17]
  Activity: 52.6%
BXPC-3 [18]
  Activity: 7.38%
HCT-116 [19]
  Activity: 3.11%
HCT-116 [20]
  Activity: 4.59%
HCT-116 [21]
  viability at 0.2 µM: 92%
BXPC-3 [22]
  Activity: 0.701%
HCT-116 [23]
  Activity: 1.67%
BXPC-3 [24]
  Activity: 1.01%
BXPC-3 [25]
  Activity: 15.4%
HCT-116 [26]
  viability at 0.2 µM: 86.5%
BXPC-3 [27]
  Activity: 93.2%
HCT-116 [28]
  Activity: 1.78%

## Cc1sc(N/N=C/c2ccccc2C(=O)O)nc1-c1ccccc1
[1]
  IC50: 6420 nM
[2]
  IC50: 19800 nM
[3]
  IC50 at 72 h: 21500 nM

## CN(/N=C/c1ccccc1C(=O)O)c1nc(-c2ccccc2Cl)cs1
[4]
  IC50: 8 nM
[1]
  IC50: 31 nM
[2]
  IC50: 80 nM
[3]
  IC50 at 72 h: 9580 nM

## Cc1c(-c2ccc(-c3ccccc3F)cc2)nc2ccc(F)cc2c1C(=O)O [BREQUINAR SODIUM]
[1]
  IC50: 158 nM
[2]
  IC50: 940 nM
[3]
  IC50 at 72 h: 34000 nM
